Measured values reported in patent US6350757B1, “Beta-carboline compounds” (Les Laboratoires Servier, priority 1999, dated 2002).

Columns and labels:
5-HT2C receptors = biological target: T1, 5-HT2C receptors (Rattus norvegicus, UniProt P08909); test: Penile erection test in the rat, erection induced by Ro 60-0175; type: in vivo; settings: for ED50: rat, sc, read-out: ID50 (inhibitory dose50) for inhibition of penile erections induced by Ro 60-0175
T1 construct: Male rats of the Wistar line (Iffa-Credo, France); from tissue; host or cells: whole animal: male Wistar rat (in vivo)
T1 sequence (P08909 33-460): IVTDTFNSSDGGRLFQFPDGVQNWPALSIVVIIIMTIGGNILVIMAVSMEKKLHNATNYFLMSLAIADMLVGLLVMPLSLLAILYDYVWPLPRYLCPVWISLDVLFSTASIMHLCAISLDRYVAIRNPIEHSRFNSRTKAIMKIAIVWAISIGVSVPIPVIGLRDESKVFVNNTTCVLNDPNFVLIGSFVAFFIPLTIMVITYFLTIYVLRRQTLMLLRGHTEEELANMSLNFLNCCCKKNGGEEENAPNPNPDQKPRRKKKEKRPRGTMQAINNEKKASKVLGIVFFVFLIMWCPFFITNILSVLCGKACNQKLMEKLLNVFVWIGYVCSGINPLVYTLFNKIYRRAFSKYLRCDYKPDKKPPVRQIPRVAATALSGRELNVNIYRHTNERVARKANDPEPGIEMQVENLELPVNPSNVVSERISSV
Method: Penile Erection Test in the Rat, with Erection Induced by Ro 60-0175 (1.25 mg/kg, s.c.)
This test (Eur. J. Pharma., 1997, 325, 9-12) enables evaluation of the capacity of pharmacological agents to inhibit penile erections induced by the administration of Ro 60-0175, a selective 5-HT2C agonist. Inhibition is thus predictive of an antagonist activity in respect of 5-HT2C receptors. Male rats of the Wistar line (Iffa-Credo, France), weighing 120-140 g on the day of the experiment, are placed individually into plexiglass observation boxes (7.5×18×30 cm) having just been administered the product or its carrier. Thirty minutes later, the animals are administered Ro 60-0175 (1.25 mg/kg, s.c.) and the number of erections achieved in the course of the following 30 minutes is counted.

melting point | SMILES | ED50 (5-HT2C receptors) | other results
232 to 233 °C | COC(=O)C1(C2NCCc3c2[nH]c2ccc(Cl)cc32)CCC1.Cl (stereo not drawn) |  | 
 | CCOC(=O)C1(C2NCCc3c2[nH]c2ccc(Cl)c(Cl)c32)CCC1.Cl (stereo not drawn) [Example 18, Ethyl 1-(5,6-dichloro-2,3,4,9-tetrahydro-1H-β-carbolin-1-yl)cylobutanecarboxylate Hydrochloride] |  | ID50 (inhibitory dose50) for inhibition of penile erections induced by Ro 60-0175 (5-HT2C receptors; s.c., male Wistar rats, product given 30 min before Ro 60-0175 (1.25 mg/kg, s.c.), erections counted over following 30 min): 0.5 mg/kg
218 to 219 °C | CCOC(=O)C1(C2c3[nH]c4ccc(Cl)cc4c3CCN2C(C)=O)CCC1 (stereo not drawn) [Example 79, Ethyl 1-(2-acetyl-6-chloro-2,3,4,9-tetrahydro-1H-β-carbolin-1-yl)cyclobutanecarboxylate] |  | 
 | CCOC(=O)C1(C2NCCc3c2[nH]c2cc(Cl)c(Cl)cc32)CCC1.Cl (stereo not drawn) [Example 6, Ethyl 1-(6,7-dichloro-2,3,4,9-tetrahydro-1H-β-carbolin-1-yl)cyclobutanecarboxylate Hydrochloride] | 0.9 mg/kg | 
 | CCOC(=O)C1(C2NCCc3c2[nH]c2ccc(OC)cc32)CCC1.Cl (stereo not drawn) [Example 7, Ethyl 1-(6-methoxy-2,3,4,9-tetrahydro-1H-β-carbolin-1-yl)cyclobutanecarboxylate Hydrochloride] | 1.1 mg/kg | 
 | CCOC(=O)C1(C2NCCc3c2[nH]c2ccc(Cl)cc32)CCC1.Cl (stereo not drawn) [Example 1, Ethyl 1-(6-chloro-2,3,4,9-tetrahydro-1H-β-carbolin-1-yl)cyclobutanecarboxylate Hydrochloride] | 0.9 mg/kg | 
